The target of this experiment is T1, Sphingosine 1-phosphate receptor 4 (Homo sapiens, UniProt O95977).
T1 sequence (O95977 whole entry): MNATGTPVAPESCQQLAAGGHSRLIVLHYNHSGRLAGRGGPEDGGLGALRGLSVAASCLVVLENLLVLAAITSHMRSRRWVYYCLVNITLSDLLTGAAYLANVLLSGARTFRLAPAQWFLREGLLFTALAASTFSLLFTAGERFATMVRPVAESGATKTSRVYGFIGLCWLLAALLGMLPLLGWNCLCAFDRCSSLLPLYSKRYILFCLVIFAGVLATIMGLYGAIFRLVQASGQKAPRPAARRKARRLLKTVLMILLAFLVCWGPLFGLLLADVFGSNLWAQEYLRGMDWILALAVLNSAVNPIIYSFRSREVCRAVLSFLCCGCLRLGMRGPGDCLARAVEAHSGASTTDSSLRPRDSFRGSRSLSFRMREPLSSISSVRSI

Each structure is given as a SMILES string. Where “and” joins values, the source holds several entries; their conditions need not be identical. Identical values can stand only once.

The Ki is a dissociation constant, usually derived from enzyme kinetics or from competition with a known ligand. A high value points to lower affinity. Turning to `CCCCCCCCCCCCC/C=C\C(O)C(N)COP(=O)(O)O` (stereo unspecified) [{[(4Z)-2-amino-3-hydroxyoctadec-4-en-1-yl]oxy}phosphonic acid], the Ki was 21 nM and 64 nM and 27 nM and 32 nM and 28 nM and 33 nM.

Source of the values: BindingDB's records for doi:10.1038/sj.bjp.0705856 (Schering-Plough Research Institute, 2004).
